According to ChEMBL document CHEMBL1201862, “PubChem BioAssay data set” (2004):
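Exposure lasted 48 hours, with cells grown in 96-well plates and compounds tested at five concentrations. The concentration for 50% growth inhibition is given as GI50.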 The source made the active and inactive calls. Rule as the data show it: active = GI50 up to about 1.1 µM and inactive = higher.

What was measured:
Assay in all cases: NCI anticancer screen, dose series, 48 h
OVCAR-5 = system: OVCAR-5
A498 = system: A498
OVCAR-4 = system: OVCAR-4
NCI-H226 = system: NCI-H226
SK-OV-3 = system: SK-OV-3
SK-MEL-2 = system: SK-MEL-2
TK-10 = system: TK-10
SW-620 = system: SW-620
NCI-H23 = system: NCI-H23
SF-268 = system: SF-268
M14 = system: M14
HCT-116 = system: HCT-116
SK-MEL-5 = system: SK-MEL-5
SNB-19 = system: SNB-19
LOX IMVI = system: LOX IMVI
HOP-62 = system: HOP-62
OVCAR-3 = system: OVCAR-3
U-251 = system: U-251
SF-295 = system: SF-295
SK-MEL-28 = system: SK-MEL-28
KM12 = system: KM12
NCI-H460 = system: NCI-H460
RXF 393 = system: RXF 393
EKVX = system: EKVX
COLO 205 = system: COLO 205
HCT-15 = system: HCT-15
UACC-257 = system: UACC-257
SF-539 = system: SF-539
SN12C = system: SN12C
HCC 2998 = system: HCC 2998
MOLT-4 = system: MOLT-4
K562 = system: K562
BT-549 = system: BT-549
UO-31 = system: UO-31
OVCAR-8 = system: OVCAR-8
RPMI-8226 = system: RPMI-8226
786-0 = system: 786-0
NCI/ADR-RES = system: NCI/ADR-RES
NCI-H522 = system: NCI-H522
HOP-92 = system: HOP-92
ACHN = system: ACHN
A549 = system: A549
PC-3 = system: PC-3
IGROV-1 = system: IGROV-1
MDA-N = system: MDA-N
T47D = system: T47D
SNB-75 = system: SNB-75
MDA-MB-231 = system: MDA-MB-231
Malme-3M = system: Malme-3M
CAKI-1 = system: CAKI-1
MCF7 = system: MCF7
MDA-MB-435 = system: MDA-MB-435
DU-145 = system: DU-145
SR = system: SR
Hs-578T = system: Hs-578T
HT-29 = system: HT-29
CCRF-CEM = system: CCRF-CEM
UACC-62 = system: UACC-62
HL-60 = system: HL-60

C=CCCCCCCC#CCCCCCCCCCC[C@@H]1C(=O)O[C@H](C)[C@@H]1O.CCCCCCCCC#CCCCCCCCCCC[C@@H]1C(=O)O[C@H](C)[C@@H]1O
GI50 (OVCAR-5): 59.2 µM (inactive)
GI50 (A498): 55.3 µM (inactive)
GI50 (OVCAR-4): 16.4 µM (inactive)
GI50 (NCI-H226): 27.1 µM (inactive)
GI50 (SK-OV-3): 36.6 µM (inactive)
GI50 (SK-MEL-2): 14.7 µM (inactive)
GI50 (TK-10): 15.7 µM (inactive)
GI50 (SW-620): 15.2 µM (inactive)
GI50 (NCI-H23): 8.39 µM (inactive)
GI50 (SF-268): 13.9 µM (inactive)
GI50 (M14): 17.3 µM (inactive)
GI50 (HCT-116): 16.2 µM (inactive)
GI50 (SK-MEL-5): 13.3 µM (inactive)
GI50 (SNB-19): 15.9 µM (inactive)
GI50 (LOX IMVI): 12.9 µM (inactive)
GI50 (HOP-62): 16 µM (inactive)
GI50 (OVCAR-3): 20.2 µM (inactive)
GI50 (U-251): 18.7 µM (inactive)
GI50 (SF-295): 18.8 µM (inactive)
GI50 (SK-MEL-28): 24 µM (inactive)
GI50 (KM12): 10.1 µM (inactive)
GI50 (NCI-H460): 11.7 µM (inactive)
GI50 (RXF 393): 11.4 µM (inactive)
GI50 (EKVX): 16.8 µM (inactive)
GI50 (COLO 205): 24.8 µM (inactive)
GI50 (HCT-15): 20.2 µM
GI50 (UACC-257): 8.45 µM (inactive)
GI50 (SF-539): 20.8 µM (inactive)
GI50 (SN12C): 15.3 µM (inactive)
GI50 (HCC 2998): 23.6 µM (inactive)
GI50 (MOLT-4): 12.6 µM (inactive)
GI50 (K562): 6.19 µM (inactive)
GI50 (BT-549): 15.5 µM (inactive)
GI50 (UO-31): 15.6 µM (inactive)
GI50 (OVCAR-8): 15.3 µM (inactive)
GI50 (RPMI-8226): 16.5 µM (inactive)
GI50 (786-0): 15.8 µM (inactive)
GI50 (NCI/ADR-RES): 9.59 µM (inactive)
GI50 (NCI-H522): 5.32 µM (inactive)
GI50 (HOP-92): 10.5 µM (inactive)
GI50 (ACHN): 17.7 µM (inactive)
GI50 (A549): 14.1 µM (inactive)
GI50 (PC-3): 13.1 µM (inactive)
GI50 (IGROV-1): 15.7 µM (inactive)
GI50 (MDA-N): 23.2 µM (inactive)
GI50 (T47D): 14.9 µM (inactive)
GI50 (SNB-75): 16.7 µM (inactive)
GI50 (MDA-MB-231): 23.6 µM (inactive)
GI50 (Malme-3M): 17.5 µM (inactive)
GI50 (CAKI-1): 15.5 µM (inactive)
GI50 (MCF7): 15.4 µM (inactive)

Cc1c(NC(=S)Nc2ccc([N+](=O)[O-])cc2)c(=O)n(-c2ccccc2)n1C
GI50 (OVCAR-5): > 100 µM (inactive)
GI50 (A498): > 100 µM (inactive)
GI50 (NCI-H226): > 100 µM (inactive)
GI50 (SK-OV-3): > 100 µM (inactive)
GI50 (TK-10): > 100 µM (inactive)
GI50 (SW-620): > 100 µM (inactive)
GI50 (NCI-H23): > 100 µM (inactive)
GI50 (MDA-MB-435): > 100 µM (inactive)
GI50 (SF-268): > 100 µM (inactive)
GI50 (M14): > 100 µM (inactive)
GI50 (HCT-116): > 100 µM (inactive)
GI50 (DU-145): > 100 µM (inactive)
GI50 (SK-MEL-5): > 100 µM (inactive)
GI50 (SNB-19): > 100 µM (inactive)
GI50 (LOX IMVI): > 100 µM (inactive)
GI50 (HOP-62): > 100 µM (inactive)
GI50 (OVCAR-3): > 100 µM (inactive)
GI50 (U-251): > 100 µM (inactive)
GI50 (SF-295): > 100 µM (inactive)
GI50 (SK-MEL-28): > 100 µM (inactive)
GI50 (KM12): > 100 µM (inactive)
GI50 (NCI-H460): > 100 µM (inactive)
GI50 (RXF 393): > 100 µM (inactive)
GI50 (SR): > 100 µM (inactive)
GI50 (EKVX): > 100 µM (inactive)
GI50 (Hs-578T): > 100 µM (inactive)
GI50 (COLO 205): > 100 µM (inactive)
GI50 (HCT-15): > 100 µM
GI50 (UACC-257): > 100 µM (inactive)
GI50 (SF-539): > 100 µM (inactive)
GI50 (HT-29): > 100 µM (inactive)
GI50 (CCRF-CEM): > 100 µM (inactive)
GI50 (HCC 2998): > 100 µM (inactive)
GI50 (MOLT-4): 10.9 µM (inactive)
GI50 (K562): 69.5 µM (inactive)
GI50 (BT-549): > 100 µM (inactive)
GI50 (UO-31): > 100 µM (inactive)
GI50 (OVCAR-8): > 100 µM (inactive)
GI50 (RPMI-8226): 16.6 µM (inactive)
GI50 (786-0): > 100 µM (inactive)
GI50 (NCI/ADR-RES): > 100 µM (inactive)
GI50 (NCI-H522): > 100 µM (inactive)
GI50 (HOP-92): > 100 µM (inactive)
GI50 (ACHN): > 100 µM (inactive)
GI50 (A549): > 100 µM (inactive)
GI50 (PC-3): > 100 µM (inactive)
GI50 (IGROV-1): > 100 µM (inactive)
GI50 (UACC-62): > 100 µM (inactive)
GI50 (MDA-N): > 100 µM (inactive)
GI50 (SNB-75): > 100 µM (inactive)
GI50 (MDA-MB-231): > 100 µM (inactive)
GI50 (HL-60): > 100 µM (inactive)
GI50 (Malme-3M): > 100 µM (inactive)
GI50 (CAKI-1): > 100 µM (inactive)
GI50 (MCF7): > 100 µM (inactive)
